From patent publication US9133128B2, “Pyrazole derivatives as cannabinoid receptor 1 antagonists” (Research Triangle Institute, priority 2011, dated 2015)
Like-named read-outs stand apart in the source and are kept apart here.

Columns and labels:
CB1 [1] = biological target: T1, CB1 (Homo sapiens, UniProt P21554); assay: Radioligand displacement of [3H]SR141716 at CB1; format: binding
T1 construct: expressed in transfected cells; host or cells: CHO-K1 (membranes)

CB1 [2] = biological target: T1, CB1; assay: Displacement of [3H]CP55940 in membranes of CHO-K1 cells over-expressing CB1; format: binding; details: for Binding Selectivity using CP55940 Displacement: CB2 Ki over CB1 Ki
CB2 = biological target: T2, CB2 (Homo sapiens, UniProt P34972); assay: Displacement of [3H]CP55940 in membranes of CHO-K1 cells over-expressing CB2; format: binding
T2 construct: expressed in transfected cells; host or cells: CHO-K1 (membranes)
Experimental: All compounds were characterized by H^1 NMR and evaluated using a calcium mobilization assay. Each compound was pharmacologically characterized using a functional fluorescent CB1 activated Gαq16-coupled intracellular calcium mobilization assay in CHO-K1 cells as has been previously described and apparent affinity (Ke) values were determined. See Zhang et al., J. Med. Chem. 2010, 53, 7048, which is incorporated herein by reference. Further characterization of select compounds was performed using radioligand displacement of [3H]1 and equilibrium dissociation constant (Ki) values were determined. Selectivity of these compounds at CB1 versus CB2 was also determined by obtaining Ki values at either receptor using displacement of [3H]CP55940 in membranes of CHO-K1 cells over-expressing either receptor. Data reported are average values from 3-6 measurements.
Select compounds were chosen for further study in radioligand displacement assays using radiolabeled rimonobant, SR141716 ([^3H]1). […] Selectivity against the CB2 receptor was determined by comparing the compound displacement of radiolabeled CP55940, which is a cannabinoid known to act as a full agonist at both CB1 and CB2 receptors. In general, tested compounds were selective for CB1 over CB2.

MDCK-MDR = MDCK-MDR transport (apical to basal); format: in vitro ADME; details: Table 4
CB1 [3] = biological target: T1, CB1; assay: CB1 activated Gαq16-coupled intracellular calcium mobilization assay in CHO-K1 cells (apparent affinity Ke); format: cell-based
[4] = Table 4, read-out: Ki (nM) v. [3H] CP55940 at CB1
[5] = Table 4, read-out: Ki (nM) v. [3H] CP55940 at CB2
[6] = Table 4, calcium mobilization, read-out: Ke (nM) at CB1
[7] = Table 4, read-out: Ki (nM) v. [3H] SR141716 at CB1

T1 sequence (P21554 whole entry): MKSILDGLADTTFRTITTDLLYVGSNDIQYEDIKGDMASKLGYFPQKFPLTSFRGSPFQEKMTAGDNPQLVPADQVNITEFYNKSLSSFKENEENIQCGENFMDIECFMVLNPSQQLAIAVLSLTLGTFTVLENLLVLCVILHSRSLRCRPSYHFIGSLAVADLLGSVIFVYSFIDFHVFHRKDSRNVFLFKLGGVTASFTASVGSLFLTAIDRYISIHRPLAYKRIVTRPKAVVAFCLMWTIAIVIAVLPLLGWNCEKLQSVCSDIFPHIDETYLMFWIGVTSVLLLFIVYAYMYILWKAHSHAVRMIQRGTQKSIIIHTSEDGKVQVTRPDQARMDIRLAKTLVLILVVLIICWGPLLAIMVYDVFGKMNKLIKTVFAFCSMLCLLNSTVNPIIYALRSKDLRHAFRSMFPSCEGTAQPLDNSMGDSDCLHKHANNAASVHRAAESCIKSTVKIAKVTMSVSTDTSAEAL
T2 sequence (P34972 whole entry): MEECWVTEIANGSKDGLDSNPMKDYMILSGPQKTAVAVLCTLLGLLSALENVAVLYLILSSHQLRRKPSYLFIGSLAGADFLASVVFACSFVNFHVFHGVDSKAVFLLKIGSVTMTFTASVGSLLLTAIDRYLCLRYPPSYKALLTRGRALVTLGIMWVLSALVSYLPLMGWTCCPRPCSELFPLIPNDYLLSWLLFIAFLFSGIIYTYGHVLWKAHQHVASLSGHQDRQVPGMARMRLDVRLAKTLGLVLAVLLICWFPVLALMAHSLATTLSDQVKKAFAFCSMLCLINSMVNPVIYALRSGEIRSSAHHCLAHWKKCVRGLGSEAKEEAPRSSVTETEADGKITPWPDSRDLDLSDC

| Structure (SMILES) | Binding Selectivity using CP55940 Displacement (CB1 [2]; Table 4) | Ki (CB1 [2]; [4]) [µM] | Ki (CB2; [5]) [µM] | % MDCK-MDR transport (apical to basal) (MDCK-MDR) [%] | Ki (CB1 [1]; [7]) [µM] | also measured |
| --- | --- | --- | --- | --- | --- | --- |
| Cc1c(C(=O)NCC2CCC(CNS(C)(=O)=O)CC2)nn(-c2ccc(Cl)cc2Cl)c1-c1ccc(Cl)cc1 (mixture of isomers) |  |  |  |  |  | Ki (CB1 [1]; Table 3, radioligand [3H]SR141716, read-out: Ki(μM) CB1 SR141716): 0.008 µM; Ki (CB1 [2]; Table 3, radioligand [3H]CP55940, read-out: Ki(μM) CB1 CP55940): 0.036 µM; Ki (CB2; Table 3, radioligand [3H]CP55940, read-out: Ki(μM) CB2 CP55940): 0.96 µM |
| Cc1c(C(=O)N2CCC(NC(=O)NC(C)C)(c3ccccc3)CC2)nn(-c2ccc(Cl)cc2Cl)c1-c1ccc(Cl)cc1 [Cl, phenyl, NHC(O)NHCH(CH3)2, 1-(1-{[5-(4-chlorophenyl)-1-(2,4-dichlorophenyl)-4-methyl-1H-pyrazol-3-yl]carbonyl}-4-phenylpiperidin-4-yl)-3-(propan-2-yl)urea] | 364.0 | 0.0135 | 4.91 | <1 |  |  |
| Cc1c(C(=O)N2CCC(O)(c3ccccc3)CC2)nn(-c2ccc(Cl)cc2Cl)c1-c1ccc(N(C)C)cc1 [N(CH3)2, phenyl, OH, 1-{[1-(2,4-dichlorophenyl)-5-[4-(dimethylamino)phenyl]-4-methyl-1H-pyrazol-3-yl]carbonyl}-4-phenylpiperidin-4-ol] | 1.0 | 0.384 | 0.4 |  | 0.0725 | Kb (CB1 [3]; [6]): 679 nM |
| Cc1c(C(=O)N2CCC(N)(c3ccccc3)CC2)nn(-c2ccc(Cl)cc2Cl)c1-c1ccc(Cl)cc1 [Cl, phenyl, NH2, 1-{[5-(4-chlorophenyl)-1-(2,4-dichlorophenyl)-4-methyl-1H-pyrazol-3-yl]carbonyl}-4-phenylpiperidin-4-amine] | 10.8 | 0.104 | 1.13 |  | 0.0305 | Kb (CB1 [3]; [6]): 485 nM |
| CCNC1(C(N)=O)CCN(C(=O)c2nn(-c3ccc(Cl)cc3Cl)c(-c3ccc(Cl)cc3)c2C)CC1 [Cl, NHC2H5, C(O)NH2, 1-{[5-(4-chlorophenyl)-1-(2,4-dichlorophenyl)-4-methyl-1H-pyrazol-3-yl]carbonyl}-4-(ethylamino)piperidine-4-carboxamide] |  | 0.0784 | 2.22 |  | 0.0346 |  |
| CCCCNC(=O)NC1(c2ccccc2)CCN(C(=O)c2nn(-c3ccc(Cl)cc3Cl)c(-c3ccc(Cl)cc3)c2C)CC1 [Cl, phenyl, NHC(O)NHC4H9, 3-butyl-1-(1-{[5-(4-chlorophenyl)-1-(2,4-dichlorophenyl)-4-methyl-1H-pyrazol-3-yl]carbonyl}-4-phenylpiperidin-4-yl)urea] | 178.1 | 0.0155 | 2.76 |  |  | Kb (CB1 [3]; [6]): 0.41 nM |
| Cc1c(C(=O)N2CCC(C(N)=O)(c3ccccc3)CC2)nn(-c2ccc(Cl)cc2Cl)c1-c1ccc(Br)cc1 [Br, phenyl, CONH2, 1-{[5-(4-bromophenyl)-1-(2,4-dichlorophenyl)-4-methyl-1H-pyrazol-3-yl]carbonyl}-4-phenylpiperidine-4-carboxamide] | 226.3 | 0.0145 | 3.28 |  | 0.00267 |  |
| Cc1c(C(=O)N2CCC(O)(c3ccccc3)CC2)nn(-c2ccc(Cl)cc2Cl)c1-c1ccc(Cl)cc1 [Cl, phenyl, OH, 1-{[5-(4-chlorophenyl)-1-(2,4-dichlorophenyl)-4-methyl-1H-pyrazol-3-yl]carbonyl}-4-hydroxy-4-phenylpiperidine] | 12.3 | 0.0674 | 0.831 |  | 0.00963 |  |
| Cc1c(C(=O)N2CCC(C(=O)NC(C)(C)C)(c3ccccc3)CC2)nn(-c2ccc(Cl)cc2Cl)c1-c1ccc(Cl)cc1 [Cl, phenyl, C(O)NH(t-butyl), N-(tert-butyl)-1-(5-(4-chlorophenyl)-1-(2,4-dichlorophenyl)-4-methyl-1H-pyrazole-3-carbonyl)-4-phenylpiperidine-4-carboxamide] | 421.6 | 0.0199 | 8.39 | <1 |  |  |
| Cc1c(C(=O)N2CCC(NC(=O)OC(C)(C)C)(c3ccccc3)CC2)nn(-c2ccc(Cl)cc2Cl)c1-c1ccc(Cl)cc1 [Cl, phenyl, NHC(O)O(t-butyl), tert-Butyl N-(1-{[5-(4-chlorophenyl)-1-(2,4-dichlorophenyl)-4-methyl-1H-pyrazol-3-yl]carbonyl}-4-phenylpiperidin-4-yl)carbamate] | 48.9 | 0.0423 | 2.11 | <1 | 0.00602 |  |
| CC(=O)NC1(c2ccccc2)CCN(C(=O)c2nn(-c3ccc(Cl)cc3Cl)c(-c3ccc(Cl)cc3)c2C)CC1 [Cl, phenyl, NHC(O)CH3, N-(1-{[5-(4-chlorophenyl)-1-(2,4-dichlorophenyl)-4-methyl-1H-pyrazol-3-yl]carbonyl}-4-phenylpiperidin-4-yl)acetamide] | 3.4 | 0.0626 | 0.214 |  | 0.0137 | Kb (CB1 [3]; [6]): 201 nM |
| Cc1c(C(=O)N2CCC(NC(=O)NC(C)(C)C)(c3ccccc3)CC2)nn(-c2ccc(Cl)cc2Cl)c1-c1ccc(Cl)cc1 [Cl, phenyl, NHC(O)NH(t-butyl), 3-tert-butyl-1-(1-{[5-(4-chlorophenyl)-1-(2,4-dichlorophenyl)-4-methyl-1H-pyrazol-3-yl]carbonyl}-4-phenylpiperidin-4-yl)urea] | 424.6 | 0.0471 | ≥ 20 | <1 | 0.0181 |  |
| Cc1c(C(=O)N2CCC(C(N)=O)(c3ccccc3)CC2)nn(-c2ccc(Cl)cc2Cl)c1-c1ccc(Cl)cc1 [Cl, phenyl, C(O)NH2, 1-{[5-(4-chlorophenyl)-1-(2,4-dichlorophenyl)-4-methyl-1H-pyrazol-3-yl]carbonyl}-4-phenylpiperidine-4-carboxamide] | 1600.0 | 0.00344 | 5.5 | 8.1 ± 11.5 | 0.00044 | Kb (CB1 [3]): 0.45 nM |
| CCOC(=O)N1CCC(NC(=O)c2nn(-c3ccc(Cl)cc3Cl)c(-c3ccc(Cl)cc3)c2C)CC1 [OC2H5, Ethyl 4-[5-(4-Chlorophenyl)-1-(2,4-dichlorophenyl)-4-methyl-1H-pyrazole-3-amido]piperidine-1-carboxylate] |  |  |  |  |  | Kb (CB1 [3]): 28.6 nM; Binding Selectivity using CP55940 Displacement (CB1 [2]; Table 5): 551.1; Ki (CB1 [2]; Table 5, read-out: Ki (nM) v. [3H] CP55940 at CB1): 0.0146 µM; Ki (CB2; Table 5, read-out: Ki (nM) v. [3H] CP55940 at CB2): 8.07 µM |
| Cc1c(C(=O)N2CCC(NS(C)(=O)=O)(c3ccccc3)CC2)nn(-c2ccc(Cl)cc2Cl)c1-c1ccc(Cl)cc1 [Cl, phenyl, NHSO2CH3, N-(1-{[5-(4-chlorophenyl)-1-(2,4-dichlorophenyl)-4-methyl-1H-pyrazol-3-yl]carbonyl}-4-phenylpiperidin-4-yl)methanesulfonamide] | 5.6 | 0.00727 | 0.041 | 3.14 ± 0.89 | 0.00328 |  |
